Assay results: paper PMC3169403 (Acta Crystallographica Section F: Structural Biology and …, 2011)
Like-named read-outs stand apart in the source and are kept apart here.

Target: T1, BpGCDH; glutaryl-CoA dehydrogenase from B. pseudomallei (Burkholderia pseudomallei, UniProt Q3JP94)
T1 construct: gene BURPS1710b_3237
Conditions: apo crystal without FAD, pH 7.5, individual soak 10-25 mM

T1 sequence (Q3JP94 1-395 limits assumed): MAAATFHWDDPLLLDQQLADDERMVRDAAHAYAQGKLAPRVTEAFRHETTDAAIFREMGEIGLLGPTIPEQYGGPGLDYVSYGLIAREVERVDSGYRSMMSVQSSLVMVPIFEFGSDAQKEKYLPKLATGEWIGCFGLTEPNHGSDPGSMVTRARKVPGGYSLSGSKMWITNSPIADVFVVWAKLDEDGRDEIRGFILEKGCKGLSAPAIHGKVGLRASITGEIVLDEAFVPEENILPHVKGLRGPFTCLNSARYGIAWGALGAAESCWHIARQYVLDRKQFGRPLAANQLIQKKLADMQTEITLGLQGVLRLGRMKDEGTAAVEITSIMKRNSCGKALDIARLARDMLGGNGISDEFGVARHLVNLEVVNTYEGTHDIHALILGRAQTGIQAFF

## COC(=O)c1cccs1 [FOL544]
Glutaryl (substrate) site, one active site per tetramer
  X-ray crystal structure (fragment soak): FOL544 (methyl thiophene-2-carboxylate; PDB entry 3d6b)

## CN1CCN(C)c2cc(CN)ccc21 [FOL680, (1,4-dimethyl-1,2,3,4-tetrahydroquinoxalin-6-yl)methylamine]
Flavin site of FAD, second molecule in substrate site of one protomer, three per tetramer
  X-ray crystal structure (fragment soak): FOL680 occupies the binding site for the flavin ring of the FAD cofactor

## CC(C)n1c(S(=O)(=O)O)nc2ccccc21 [FOL6421, 1-(1-methylethyl)-1H-benzimidazole-2-sulfonate]
Glutaryl (substrate) site, all four active sites, HEPES also modelled at tetramer interface
  X-ray crystal structure (fragment soak): FOL6421 (PDB entry 3gnc) was observed bound in all four active sites of tetrameric BpGCDH
